Our source for the Ki and GI50 values is patent publication US11596639B2, “Substituted indole Mcl-1 inhibitors” (Vanderbilt University, priority 2016, dated 2023).

The target of one experiment is Mcl-1 (Homo sapiens (Human), UniProt Q07820). In words: Fluorescence polarization anisotropy (FPA) competition assay, FITC-Bak or FITC-Bim BH3 peptide. To be noted: read-out: Ki for Inhibition of Mcl-1 by FPA assay. In kind it is binding. For orientation: In fluorescence polarisation assays a small probe gives low polarisation when free and higher when bound to something large.

For experiment [1], the system named is H929 human cancer cell lines. Description: Cellular viability / proliferation (Cell TiterGlo, 72 h). In kind it is cell-based. The procedure:
Cellular Viability of Human Tumor Cell Lines
To evaluate compound effect on cellular proliferation, cells were plated at 1,000 cells/well in 96-well tissue culture plates in a total volume of 90 μL medium supplemented with 10% FBS (Sigma, Saint Louis, Mo.). 24 hours later, 10 μL of compound (in a 2-fold serial dilution) is added to the cells for a top concentration of 50 μM and a final DMSO concentration <1%. After 72 hours, 50 μL of Cell TiterGlo (Promega, Madison, Wis., USA) reagent is added to each well and plates are incubated at room temperature, in the dark, for 30 minutes. Luminescence is measured on a BioTek Cytation 3. Luminescence values are imported into a template in XLFit (Guildford, Surrey, UK) that uses a four-parameter fit to generate an IC50 value for each compound dilution series on the plate.
Background: ATP-based viability assays read luminescence as a measure of living cells.

Setting [2] is: Homo sapiens, NCI-H929, 72 h, read-out: GI50 on cellular proliferation of H929 human cancer cell lines, H929 cells, 72 h, Cell TiterGlo, 10% FBS.

Like-named read-outs stand apart in the source and are kept apart here.

Chain of Mcl-1 (Q07820 172-327): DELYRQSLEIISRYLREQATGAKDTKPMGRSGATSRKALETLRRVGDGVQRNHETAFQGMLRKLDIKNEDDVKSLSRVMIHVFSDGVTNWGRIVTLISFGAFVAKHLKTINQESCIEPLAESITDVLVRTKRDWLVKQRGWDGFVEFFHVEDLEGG

What is called Ki is a dissociation constant, usually derived from enzyme kinetics or from competition with a known ligand. `Cc1cc(OCCCc2c3n(c4c(-c5c(C)nn(C)c5C)c(Cl)ccc24)[C@H](C)CN(c2cn(C)c4ccc(C(F)(F)F)cc24)C3=O)cc(C)c1Cl` (single isomer, unassigned) [Example 193]: at Mcl-1, the inhibition constant (Ki) came to 3.9 nM. Still for that read-out and setting: to `Cc1cc(OCCCc2c3n(c4c(-c5c(C)nn(C)c5C)c(Cl)ccc24)[C@H](C)CN(c2cn(C)c4ccc(C(F)(F)F)cc24)C3=O)cc(C)c1Cl` (single isomer, unassigned) [Example 200] belongs 6.6 nM; to `Cc1cc(OCCCc2c(C(=O)NC3CCC(C(=O)O)CC3)[nH]c3c(-c4c(C)ncnc4C)c(Cl)ccc23)cc(C)c1Cl` (single isomer, unassigned) [Example 746, 4-(6-Chloro-3-(3-(4-chloro-3,5-dimethylphenoxy)propyl)-7-(4,6-dimethylpyrimidin-5-yl)-1H-indole-2-carboxamido)cyclohexane-1-carboxylic acid], 5.2 nM. In the case of `Cc1cc(OCCCc2c(C(=O)NC3CCC(C(=O)O)CC3)[nH]c3c(-c4c(C)ncnc4C)c(Cl)ccc23)cc(C)c1Cl` (single isomer, unassigned) [Example 747, 4-(6-Chloro-3-(3-(4-chloro-3,5-dimethylphenoxy)propyl)-7-(4,6-dimethylpyrimidin-5-yl)-1H-indole-2-carboxamido)cyclohexane-1-carboxylic acid], the Ki at Mcl-1 is 16 nM. The same measure, in the same setting: the result for `Cc1cc(OCCCc2c3n(c4c(-c5c(C)nn(C)c5C)c(Cl)ccc24)CCCN(c2cc(C(=O)O)c4c(c2)nnn4C)C3=O)cc(C)c1Cl` [Example 5, 6-[8-Chloro-11-[3-(4-chloro-3,5-dimethyl-phenoxy)propyl]-1-oxo-7-(1,3,5-trimethylpyrazol-4-yl)-4,5-dihydro-3H-[1,4]diazepino[1,2-a]indol-2-yl]-3-methyl-benzotriazole-4-carboxylic acid] reads 2.7 nM; that for `Cc1cc(OCCCc2c3n(c4c(-c5c(C)nn(C)c5C)c(Cl)ccc24)CCCN(c2cccc4c(C#N)cn(C)c24)C3=O)cc(C)c1Cl` [Example 6, 7-[8-Chloro-11-[3-(4-chloro-3,5-dimethyl-phenoxy)propyl]-1-oxo-7-(1,3,5-trimethylpyrazol-4-yl)-4,5-dihydro-3H-[1,4]diazepino[1,2-a]indol-2-yl]-1-methyl-indole-3-carbonitrile], 54 nM; that for `Cc1cc(OCCCc2c3n(c4c(-c5c(C)nn(C)c5C)c(Cl)ccc24)CCCN(Cc2cc(C(=O)O)cc(N4CCN(C(=O)OC(C)(C)C)CC4)n2)C3=O)cc(C)c1Cl` [Example 8, 2-(4-(Tert-butoxycarbonyl)piperazin-1-yl)-6-((8-chloro-11-(3-(4-chloro-3,5-dimethylphenoxy)propyl)-1-oxo-7-(1,3,5-trimethyl-1H-pyrazol-4-yl)-4,5-dihydro-1H-[1,4]diazepino[1,2-a]indol-2(3H)-yl)methyl)isonicotinic acid], 27 nM.

Turning to `Cc1cc(OCCCc2c3n(c4c(-c5c(C)nn(C)c5C)c(Cl)ccc24)CCCN(Cc2cc(C(=O)O)cc(N4CCN(C(=O)c5ccco5)CC4)n2)C3=O)cc(C)c1Cl` [Example 9, 2-((8-Chloro-11-(3-(4-chloro-3,5-dimethylphenoxy)propyl)-1-oxo-7-(1,3,5-trimethyl-1H-pyrazol-4-yl)-4,5-dihydro-1H-[1,4]diazepino[1,2-a]indol-2(3H)-yl)methyl)-6-(4-(furan-2-carbonyl)piperazin-1-yl)isonicotinic acid], the Ki on Mcl-1 was 20 nM. Same read-out and setting: the result for `Cc1cc(OCCCc2c3n(c4c(-c5c(C)nn(C)c5C)c(Cl)ccc24)CCCN(Cc2cc(C(=O)O)cc(N4CCNCC4)n2)C3=O)cc(C)c1Cl` [Example 10, 2-((8-Chloro-11-(3-(4-chloro-3,5-dimethylphenoxy)propyl)-1-oxo-7-(1,3,5-trimethyl-1H-pyrazol-4-yl)-4,5-dihydro-1H-[1,4]diazepino[1,2-a]indol-2(3H)-yl)methyl)-6-(piperazin-1-yl)isonicotinic acid] reads 57 nM; that for `CC(=O)N1CCN(c2cc(C(=O)O)cc(CN3CCCn4c(c(CCCOc5cc(C)c(Cl)c(C)c5)c5ccc(Cl)c(-c6c(C)nn(C)c6C)c54)C3=O)n2)CC1` [Example 17, 2-(4-acetylpiperazin-1-yl)-6-((8-chloro-11-(3-(4-chloro-3,5-dimethylphenoxy)propyl)-1-oxo-7-(1,3,5-trimethyl-1H-pyrazol-4-yl)-4,5-dihydro-1H-[1,4]diazepino[1,2-a]indol-2(3H)-yl)methyl)isonicotinic acid], 10 nM; that for `Cc1cc(OCCCc2c3n(c4c(-c5c(C)nn(C)c5C)c(Cl)ccc24)CCCN(c2cc4c(c(C(=O)O)c2)OCC4)C3=O)cc(C)c1Cl` [Example 18, 5-[8-chloro-11-[3-(4-chloro-3,5-dimethyl-phenoxy)propyl]-1-oxo-7-(1,3,5-trimethylpyrazol-4-yl)-4,5-dihydro-3H-[1,4]diazepino[1,2-a]indol-2-yl]-2,3-dihydrobenzofuran-7-carboxylic acid], 5.8 nM. On the same count and under the same terms, the result for `CC[C@@H]1Cn2c(c(CCCOc3cc(C)c(Cl)c(C)c3)c3ccc(Cl)c(-c4c(C)nn(C)c4C)c32)C(=O)N1` [Example 24, (R)-7-chloro-10-(3-(4-chloro-3,5-dimethylphenoxy)propyl)-3-ethyl-6-(1,3,5-trimethyl-1H-pyrazol-4-yl)-3,4-dihydropyrazino[1,2-a]indol-1(2H)-one] reads 25 nM; that for `Cc1cc(OCCCc2c3n(c4c(-c5c(C)nn(C)c5C)c(Cl)ccc24)CCCN(c2cc4c(c(C(=O)O)c2)OCCO4)C3=O)cc(C)c1Cl` [Example 25, 7-(8-Chloro-11-(3-(4-chloro-3,5-dimethylphenoxy)propyl)-1-oxo-7-(1,3,5-trimethyl-1H-pyrazol-4-yl)-4,5-dihydro-1H-[1,4]diazepino[1,2-a]indol-2(3H)-yl)-2,3-dihydrobenzo[b][1,4]dioxine-5-carboxylic acid], 1.1 nM; that for `Cc1ccc(S(=O)(=O)N2CCN(c3cc(C(=O)O)cc(CN4CCCn5c(c(CCCOc6cc(C)c(Cl)c(C)c6)c6ccc(Cl)c(-c7c(C)nn(C)c7C)c65)C4=O)n3)CC2)o1` [Example 27, 2-((8-chloro-11-(3-(4-chloro-3,5-dimethylphenoxy)propyl)-1-oxo-7-(1,3,5-trimethyl-1H-pyrazol-4-yl)-4,5-dihydro-1H-[1,4]diazepino[1,2-a]indol-2(3H)-yl)methyl)-6-(4-((5-methylfuran-2-yl)sulfonyl)piperazin-1-yl)isonicotinic acid], 39 nM.

`Cc1cc(N2C[C@@H](C)n3c(c(CCCOc4cc(C)c(Cl)c(C)c4)c4ccc(Cl)c(-c5c(C)nn(C)c5C)c43)C2=O)c2c(c1)cc(C(=O)O)n2CCN1CCOCC1` [Example 597, (R)-7-(7-chloro-10-(3-(4-chloro-3,5-dimethylphenoxy)propyl)-4-methyl-1-oxo-6-(1,3,5-trimethyl-1H-pyrazol-4-yl)-3,4-dihydropyrazino[1,2-a]indol-2(1H)-yl)-5-methyl-1-(2-morpholinoethyl)-1H-indole-2-carboxylic acid]: in experiment [1] (setting [2]), the GI50 amounted to 690 nM. The same measure, in the same setting: the result for `Cc1cc(OCCCc2c3n(c4c(-c5c(C)nn(C)c5C)c(Cl)ccc24)[C@H](C)CN(c2cc(N(C)C(=O)CN4CCCCC4)cc4c(C(=O)O)cn(C)c24)C3=O)cc(C)c1Cl` [Example 612, (R)-7-(7-chloro-10-(3-(4-chloro-3,5-dimethylphenoxy)propyl)-4-methyl-1-oxo-6-(1,3,5-trimethyl-1H-pyrazol-4-yl)-3,4-dihydropyrazino[1,2-a]indol-2(1H)-yl)-1-methyl-5-(N-methyl-2-(piperidin-1-yl)acetamido)-1H-indole-3-carboxylic acid] reads 7600 nM. As to `COc1ccc(N2C[C@@H](C)n3c(c(CCCOc4cc(C)c(Cl)c(C)c4)c4ccc(Cl)c(-c5c(C)nn(C)c5C)c43)C2=O)c2c1c(C(=O)O)cn2Cc1cccc(C)n1` [Example 621, (R)-7-(7-chloro-10-(3-(4-chloro-3,5-dimethylphenoxy)propyl)-4-methyl-1-oxo-6-(1,3,5-trimethyl-1H-pyrazol-4-yl)-3,4-dihydropyrazino[1,2-a]indol-2(1H)-yl)-4-methoxy-1-((6-methylpyridin-2-yl)methyl)-1H-indole-3-carboxylic add], the GI50 in experiment [1] (H929 cells, 72 h, Cell TiterGlo, 10% FBS, read-out: GI50 on cellular proliferation of H929 human cancer cell lines) turned out to be 390 nM.

Take `COc1ccc(N2C[C@@H](C)n3c(c(CCCOc4cc(C)c(Cl)c(C)c4)c4ccc(Cl)c(-c5c(C)nn(C)c5C)c43)C2=O)c2c1c(C(=O)O)cn2Cc1cccc(C)n1` [Example 622, (R)-7-(7-chloro-10-(3-(4-chloro-3,5-dimethylphenoxy)propyl)-4-methyl-1-oxo-6-(1,3,5-trimethyl-1H-pyrazol-4-yl)-3,4-dihydropyrazino[1,2-a]indol-2(1H)-yl)-4-methoxy-1-((6-methylpyridin-2-yl)methyl)-1H-indole-3-carboxylic acid]: in experiment [1] (setting [2]), the GI50 stood at 920 nM. Regarding `COCCn1c(C(=O)O)cc2cc(C)cc(N3C[C@@H](C)n4c(c(CCCOc5cc(C)c(Cl)c(C)c5)c5ccc(Cl)c(-c6c(C)nc(CN7CCN(C)C(=O)C7)nc6C)c54)C3=O)c21` [Example 729, (R)-7-(7-chloro-10-(3-(4-chloro-3,5-dimethylphenoxy)propyl)-6-(4,6-dimethyl-2-((4-methyl-3-oxopiperazin-1-yl)methyl)pyrimidin-5-yl)-4-methyl-1-oxo-3,4-dihydropyrazino[1,2-a]indol-2(1H)-yl)-1-(2-methoxyethyl)-5-methyl-1H-indole-2-carboxylic acid], the GI50 in experiment [1] (setting [2]) came out at 260 nM.
